Our source for the IC50 values is US6967196B1, “Sulfonamide compounds and uses thereof” (Bristol-Myers Squibb Company, priority 1999, dated 2005).

The structures appear in SMILES notation. Where a name gives a salt, the structure may show the parent alone.

In the first assay the test system is amyloid β production in transfected H4 (human neuroglioma) cells stably expressing APP constructs. Put plainly: In vitro cell-based assay of inhibitors of amyloid β production (ELISA). The settings on record: Homo sapiens, 16 h, transfected H4 cells stably expressing APP; approx. 16 h incubation; amyloid β in medium by ELISA; read-out: ACTIVITY (IC50, inhibition of amyloid β production). An outline of the steps: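 Aβ secreted into the medium was read by sandwich ELISA (monoclonal capture for the Aβ C-terminus, polyclonal detection for the N-terminus) and calibrated on a standard curve. Before this, APP-expressing H4 cells were exposed to compound for ~16 h at an initial 10-100 μM, with actives then retested in dose-response.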
Background: An ELISA detects its analyte on a solid surface through an enzyme-linked reagent.
In the case of `O=S(=O)(c1ccc(Cl)cc1)N(Cc1ccccc1OCCCN1CCC(O)CC1)c1ccccc1` [Example 645, 4-chloro-N-{2-[3-(4-hydroxy-1-piperidinyl)propoxy]benzyl}-N-phenylbenzenesulfonamide hydrochloride], the half-inhibitory concentration (IC50) lay within 100 to 500 nM.

`CCOc1ccc(C(=O)N2CCCCC2CCOc2ccccc2CN(c2cc(F)ccc2F)S(=O)(=O)c2ccc(Cl)cc2)cc1` (centres unmarked) [Example 648, 4-chloro-N-(2,5-difluorophenyl)-N-{2-[2-[1-(4-ethoxybenzoyl)-2-piperidinyl]ethoxy}benzyl)benzenesulfonamide]: the 50% inhibitory concentration (IC50) lay in the range of 100 to 500 nM.

Consider `O=C(c1cccc(F)c1)N1CCCCC1CCOc1ccccc1CN(c1cc(F)ccc1F)S(=O)(=O)c1ccc(Cl)cc1` (centres unmarked) [Example 661, 4-chloro-N-(2,5-difluorophenyl)-N-(2-{2-[1-(3-fluorobenzoyl)-2-piperidinyl]ethoxy}benzyl)benzenesulfonamide], for which the IC50 was 100 to 500 nM.

As to `O=S(=O)(c1ccc(Cl)cc1)N(Cc1ccccc1OCCCN1CCCCC1)c1cccc(Cl)c1` [Example 663, 4-chloro-N-(3-chlorophenyl)-N-{2-[3-(1-piperidinyl)propoxy]benzyl}benzenesulfonamide hydrochloride], the half-maximal inhibitory concentration (IC50) is 100 to 500 nM.

Still in this assay, the particulars now being: Homo sapiens, 16 h, transfected H4 cells stably expressing APP; approximately 16 hours incubation; amyloid β in medium by ELISA; Table B; read-out: ACTIVITY (IC50, inhibition of amyloid β production).
For the molecule `O=S1(=O)CCN(CCCOc2ccccc2CN(c2ccccc2)S(=O)(=O)c2ccc(Cl)cc2)CC1` [Example 492, 4-chloro-N-{2-[3-(1,1-dioxido-4-thiomorpholinyl)propoxy]benzyl}-N-phenylbenzenesulfonamide hydrochloride], the IC50 was 100 to 500 nM.

The same assay, now with this note: transfected H4 cells stably expressing APP; approx. 16 h incubation; amyloid β in medium by ELISA; read-out: ACTIVITY (IC50, inhibition of amyloid β production).
Turning to `COC(=O)[C@H](CC(C)C)NC(=O)CCC[C@@H](C)N(c1cc(Cl)ccc1F)S(=O)(=O)c1ccc(Cl)cc1` [Example 541], the IC50 was 100 to 500 nM.

On to `COC(=O)[C@@H](NC(=O)CCCC[C@@H](C)N(c1cc(Cl)ccc1F)S(=O)(=O)c1ccc(Cl)cc1)C(C)C` [Example 542, (R)-4-Chloro-N-(5-chloro-2-fluorophenyl)-N-[6-[N-(S)-[1-(methoxycarbonyl)-2-methylpropyl]amino]-1-methyl-6-oxohexyl]benzenesulfonamide], for which the IC50 lay in the range of 100 to 500 nM.

For `COC(=O)[C@H](CC(C)C)NC(=O)CCCC[C@@H](C)N(c1cc(Cl)ccc1F)S(=O)(=O)c1ccc(Cl)cc1` [Example 543, (R)-4-Chloro-N-(5-chloro-2-fluorophenyl)-N-[6-[N-(S)-[1-(methoxycarbonyl)-3-methylbutyl]amino]-1-methyl-6-oxohexyl]benzenesulfonamide], the IC50 fell in the range of 100 to 500 nM.

For `CC(C)[C@@H](NC(=O)CCC[C@@H](C)N(c1cc(Cl)ccc1F)S(=O)(=O)c1ccc(Cl)cc1)C(=O)O` [Example 544, (R)-4-Chloro-N-(5-chloro-2-fluorophenyl)-N-[5-[N-(R)-[1-(carboxy)-2-methylpropyl]amino]-1-methyl-5-oxopentyl]benzenesulfonamide], the half-inhibitory concentration (IC50) was in the range of 100 to 500 nM.

Regarding `CC(C)C[C@H](NC(=O)CCC[C@@H](C)N(c1cc(Cl)ccc1F)S(=O)(=O)c1ccc(Cl)cc1)C(=O)O` [Example 546, (R)-4-Chloro-N-(5-chloro-2-fluorophenyl)-N-[5-[N-(S)-[1-(carboxy)-3-methylbutyl]amino]-1-methyl-5-oxopentyl]benzenesulfonamide], the half-inhibitory concentration (IC50) was 100 to 500 nM.

Turning to `CC(C)[C@H](NC(=O)CCCC[C@@H](C)N(c1cc(Cl)ccc1F)S(=O)(=O)c1ccc(Cl)cc1)C(=O)O` [Example 547, (R)-4-Chloro-N-(5-chloro-2-fluorophenyl)-N-[6-[N-(S)-[1-(carboxy)-2-methylpropyl]amino]-1-methyl-6-oxohexyl]benzenesulfonamide], the 50% inhibitory concentration (IC50) is 100 to 500 nM.

`CC(C)C[C@H](NC(=O)CCCC[C@@H](C)N(c1cc(Cl)ccc1F)S(=O)(=O)c1ccc(Cl)cc1)C(=O)O` [Example 548, (R)-4-Chloro-N-(5-chloro-2-fluorophenyl)-N-[6-[N-(S)-[1-(carboxy)-3-methylbutyl]amino]-1-methyl-6-oxohexyl]benzenesulfonamide]: the IC50 is 100 to 500 nM.

With `C[C@H](C(=O)NCc1ccccn1)N(c1cc(Cl)ccc1F)S(=O)(=O)c1ccc(Cl)cc1` [Example 610], the IC50 lay in the range of 100 to 500 nM.

On to `C[C@H](C(=O)N[C@@H]1CC2CCC1C2)N(c1cc(Cl)ccc1F)S(=O)(=O)c1ccc(Cl)cc1` (some centres unmarked) [Example 627], for which the concentration for half-maximal inhibition (IC50) was 100 to 500 nM.

`CC(c1ccccc1OCCCN(C)C(=O)c1ccccc1I)N(c1cc(F)ccc1F)S(=O)(=O)c1ccc(Cl)cc1` (centres unmarked) [Example 637]: the concentration for half-maximal inhibition (IC50) was 100 to 500 nM.

In the case of `CN(CCCOc1ccccc1CN(c1cc(F)ccc1F)S(=O)(=O)c1ccc(Cl)cc1)C(=O)CCCCC1SCC2NC(=O)NC21` (centres unmarked) [Example 666, N-{3-[2-({[(4-chlorophenyl)sulfonyl]-2,5-difluoroanilino}methyl)phenoxy]propyl}-N-methyl-5-(2-oxohexahydro-1H-thieno[3,4-d]imidazol-4-yl)pentamide], the IC50 is 100 to 500 nM.

The same assay, now with this note: transfected H4 cells stably expressing APP; approximately 16 hours incubation; amyloid β in medium by ELISA; Table B; read-out: ACTIVITY (IC50, inhibition of amyloid β production).
Take `COC(=O)CS(=O)(=O)CCc1cc(F)ccc1[C@@H](C)N(c1cc(F)ccc1F)S(=O)(=O)c1ccc(Cl)cc1` [Example 478, Methyl ({2-[2-((1R)-1-{[(4-chlorophenyl)sulfonyl]-2,5-difluoroanilino}ethyl)-5-fluorophenyl]ethyl}sulfonyl)acetate]: the half-inhibitory concentration (IC50) was 100 to 500 nM.

As for `COC(=O)[C@H](CSCCCc1cc(F)ccc1[C@@H](C)N(c1cc(F)ccc1F)S(=O)(=O)c1ccc(Cl)cc1)NC(=O)OC(C)(C)C` [Example 485], the IC50 fell in the range of 100 to 500 nM.

`COC(=O)[C@H](CS(=O)(=O)CCCc1cc(F)ccc1[C@@H](C)N(c1cc(F)ccc1F)S(=O)(=O)c1ccc(Cl)cc1)NC(=O)OC(C)(C)C` [Example 486]: the IC50 fell in the range of 100 to 500 nM.

Regarding `COC(=O)[C@@H](N)CS(=O)(=O)CCCc1cc(F)ccc1[C@@H](C)N(c1cc(F)ccc1F)S(=O)(=O)c1ccc(Cl)cc1` [Example 487, Methyl (2R)-2-amino-3-({3-[2-((1R)-1-{[(4-chlorophenyl)sulfonyl]-2,5-difluoroanilino}ethyl)-5-fluorophenyl]propyl}sulfonyl)propanoate Hydrochloride], the half-inhibitory concentration (IC50) is 100 to 500 nM.

Regarding `C[C@H](c1ccc(F)cc1CCCC(=O)O)N(c1cc(F)ccc1F)S(=O)(=O)c1ccc(Cl)cc1` [Example 494, 4-[2-((1R)-1-{[(4-chlorophenyl)sulfonyl]-2,5-difluoroanilino}ethyl) 5-fluorophenyl]butanoic Acid], the IC50 lay in the range of 100 to 500 nM.

As to `C[C@H](c1ccc(F)cc1CCCC(=O)NC1CCCCC1)N(c1cc(F)ccc1F)S(=O)(=O)c1ccc(Cl)cc1` [Example 496, 4-[2-((1R)-1-{[(4-chlorophenyl)sulfonyl]-2,5-difluoroanilino}ethyl)-5-fluorophenyl]-N-cyclohexylbutanamide], the half-inhibitory concentration (IC50) lay within 100 to 500 nM.

Consider `CNC(=O)CCCc1cc(F)ccc1[C@@H](C)N(c1cc(F)ccc1F)S(=O)(=O)c1ccc(Cl)cc1` [Example 498, 4-[2-((1R)-1-{[(4-chlorophenyl)sulfonyl]-2,5-difluoroanilino}ethyl)-5-fluorophenyl]-N-methylbutanamide], for which the 50% inhibitory concentration (IC50) was in the range of 100 to 500 nM.

For the molecule `CCCN(CCC)C(=O)CCCc1cc(F)ccc1[C@@H](C)N(c1cc(F)ccc1F)S(=O)(=O)c1ccc(Cl)cc1` [Example 500, 4-[2-((1R)-1-{[(4-chlorophenyl)sulfonyl]-2,5-difluoroanilino}ethyl)-5-fluorophenyl]-N,N-dipropylbutanamide], the IC50 lay within 100 to 500 nM.

`O=S(=O)(c1ccc(Cl)cc1)N(Cc1ccccc1OCCC[N+]1([O-])CCCCC1)c1ccccc1` [Example 505, 4-Chloro-N-{2-[3-(1-hydroxy-1˜lambda˜5˜piperidin-1-yl)propoxy]benzyl}-N-phenylbenzenesulfonamide]: the 50% inhibitory concentration (IC50) lay in the range of 100 to 500 nM.

As for `O=S(=O)(c1ccc(Cl)cc1)N(Cc1ccccc1OCCC[N+]1([O-])CCCCC1)c1cc(Cl)ccc1Cl` [Example 506], the IC50 lay in the range of 100 to 500 nM.

Regarding `O=S(=O)(c1ccc(Cl)cc1)N(Cc1ccccc1OCCC[N+]1([O-])CCCC1)c1cc(F)ccc1F` [Example 507], the IC50 is 100 to 500 nM.

In the case of `C[N+]1(CCCOc2ccccc2CN(c2cc(Cl)ccc2Cl)S(=O)(=O)c2ccc(Cl)cc2)CCCCC1` [Example 513, 1-{3-[2-({2,5-dichloro[(4-chlorophenyl)sulfonyl]anilino}methyl)phenoxy]propyl}-1-methylpiperidinium Iodide], the half-inhibitory concentration (IC50) was in the range of 100 to 500 nM.

`C[C@H](COC(=O)NCCCn1ccnc1)N(c1cc(F)ccc1F)S(=O)(=O)c1ccc(Cl)cc1` [Example 517, 4-Chloro-N-(2,5-difluorophenyl)-N-[2-[[N′-[3-(1 h-imidazol-1-yl)propylamino]carbonyl]oxy]-(r)-1-methylethyl]benzenesulfonamide]: the IC50 was in the range of 100 to 500 nM.

Regarding `CC(C)[C@H](NC(=O)CCC[C@@H](C)N(c1cc(Cl)ccc1F)S(=O)(=O)c1ccc(Cl)cc1)C(=O)O` [Example 536, (R)-4-Chloro-N-(5-chloro-2-fluorophenyl)-N-[5-[N-(S)-[1-(carboxy)-2-methylpropyl]amino]-1-methyl-5-oxopentyl]benzenesulfonamide], the IC50 was 100 to 500 nM.

In the case of `COC(=O)[C@@H](NC(=O)CC[C@@H](C)N(c1cc(Cl)ccc1F)S(=O)(=O)c1ccc(Cl)cc1)C(C)C` [Example 537, (R)-4-Chloro-N-(5-chloro-2-fluorophenyl)-N-[4-[N-(S)-[1-(methoxycarbonyl)-2-methylpropyl]amino]1-methyl-4-oxobutyl]benzenesulfonamide], the concentration for half-maximal inhibition (IC50) lay in the range of 100 to 500 nM.

In the case of `COC(=O)[C@H](CC(C)C)NC(=O)CC[C@@H](C)N(c1cc(Cl)ccc1F)S(=O)(=O)c1ccc(Cl)cc1` [Example 538], the IC50 is 100 to 500 nM.

What is called IC50 is the concentration that gives 50% inhibition.
